Measurements from the OligoGym collection.
HELM strings list units from the 5' end as sugar, base in round brackets, then linkage (d deoxyribose, r ribose, m 2'-O-methyl, p phosphodiester). Strings are as the collection lists them; they lack the last nucleoside at the 3' end of the tested compound. [moe] = 2'-O-(2-methoxyethyl) (MOE); [sp] = phosphorothioate linkage; [m5C] = 5-methylcytosine

Biological target: LRRK2
Assay: mouse, dose not given
Conditions: ASO

Substance	3 h FOB score [score 0-7]
RNA1{[moe](A)[sp].[moe](A)p.[moe](A)[sp].[moe](T)[sp].[moe](G)[sp].d(A)[sp].d(G)[sp].d(T)[sp].d(G)[sp].d([m5C])[sp].d(A)[sp].d(T)[sp].d(G)[sp].d(G)[sp].d([m5C])[sp].[moe](A)[sp].[moe](T)p.[moe]([m5C])[sp].[moe](A)}$$$$ (last 3' nucleoside missing)	4
RNA1{[moe](A)[sp].[moe](A)p.[moe](G)[sp].[moe](T)[sp].[moe]([m5C])[sp].d([m5C])[sp].d(A)[sp].d(A)[sp].d(A)[sp].d(T)[sp].d(G)[sp].d(T)[sp].d(G)[sp].d(T)[sp].d([m5C])[sp].[moe](A)[sp].[moe](A)p.[moe](A)[sp].[moe]([m5C])}$$$$ (last 3' nucleoside missing)	5
RNA1{[moe](A)[sp].[moe](A)p.[moe](T)[sp].[moe](G)[sp].[moe](A)[sp].d(G)[sp].d(T)[sp].d(G)[sp].d([m5C])[sp].d(A)[sp].d(T)[sp].d(G)[sp].d(G)[sp].d([m5C])[sp].d(A)[sp].[moe](T)[sp].[moe]([m5C])p.[moe](A)[sp].[moe](A)}$$$$ (last 3' nucleoside missing)	3
RNA1{[moe](A)[sp].[moe](A)p.[moe](T)p.[moe](G)p.[moe]([m5C])[sp].d(T)[sp].d(T)[sp].d(T)[sp].d([m5C])[sp].d(A)[sp].d(T)[sp].d(A)[sp].d(G)[sp].d([m5C])[sp].d(T)[sp].[moe](T)p.[moe]([m5C])p.[moe]([m5C])[sp].[moe](A)}$$$$ (last 3' nucleoside missing)	1
RNA1{[moe](A)[sp].[moe](A)p.[moe]([m5C])[sp].[moe](G)[sp].[moe]([m5C])[sp].d(A)[sp].d([m5C])[sp].d(T)[sp].d(T)[sp].d(A)[sp].d(A)[sp].d([m5C])[sp].d(A)[sp].d(A)[sp].d(T)[sp].[moe](A)[sp].[moe](T)p.[moe]([m5C])[sp].[moe](A)}$$$$ (last 3' nucleoside missing)	0
RNA1{[moe](A)[sp].[moe](G)[sp].[moe](T)[sp].[moe](T)[sp].[moe]([m5C])[sp].d([m5C])[sp].d(T)[sp].d(T)[sp].d([m5C])[sp].d(A)[sp].d(G)[sp].d(T)[sp].d([m5C])[sp].d(T)[sp].d([m5C])[sp].[moe](A)[sp].[moe](A)p.[moe](G)[sp].[moe](G)}$$$$ (last 3' nucleoside missing)	7
RNA1{[moe](A)[sp].[moe](G)p.[moe](G)p.[moe](A)p.[moe](G)[sp].d(A)[sp].d(A)[sp].d(T)[sp].d(G)[sp].d(T)[sp].d(A)[sp].d(T)[sp].d(A)[sp].d(T)[sp].d(G)[sp].[moe]([m5C])p.[moe](T)p.[moe](T)[sp].[moe]([m5C])}$$$$ (last 3' nucleoside missing)	6
RNA1{[moe](A)[sp].[moe](G)p.[moe](G)p.[moe]([m5C])p.[moe](A)[sp].d(T)[sp].d(T)[sp].d(T)[sp].d([m5C])[sp].d(A)[sp].d(T)[sp].d(A)[sp].d(T)[sp].d(A)[sp].d(G)[sp].[moe](T)p.[moe]([m5C])p.[moe](G)[sp].[moe](G)}$$$$ (last 3' nucleoside missing)	4
RNA1{[moe](A)[sp].[moe](G)p.[moe](T)[sp].[moe](G)[sp].[moe]([m5C])[sp].d(A)[sp].d(T)[sp].d(G)[sp].d(G)[sp].d([m5C])[sp].d(A)[sp].d(T)[sp].d([m5C])[sp].d(A)[sp].d(A)[sp].[moe](A)[sp].[moe](A)p.[moe](A)[sp].[moe](T)}$$$$ (last 3' nucleoside missing)	2
RNA1{[moe](A)[sp].[moe](G)p.[moe](T)[sp].[moe](T)[sp].[moe]([m5C])[sp].d([m5C])[sp].d(T)[sp].d(T)[sp].d([m5C])[sp].d(A)[sp].d(G)[sp].d(T)[sp].d([m5C])[sp].d(T)[sp].d([m5C])[sp].[moe](A)p.[moe](A)p.[moe](G)[sp].[moe](G)}$$$$ (last 3' nucleoside missing)	7
RNA1{[moe](A)[sp].[moe](G)p.[moe](T)p.[moe](G)p.[moe]([m5C])[sp].d(A)[sp].d(T)[sp].d(G)[sp].d(G)[sp].d([m5C])[sp].d(A)[sp].d(T)[sp].d([m5C])[sp].d(A)[sp].d(A)[sp].[moe](A)p.[moe](A)p.[moe](A)[sp].[moe](T)}$$$$ (last 3' nucleoside missing)	1
RNA1{[moe](A)[sp].[moe](G)p.[moe](T)p.[moe](T)[sp].[moe]([m5C])[sp].d([m5C])[sp].d(T)[sp].d(T)[sp].d([m5C])[sp].d(A)[sp].d(G)[sp].d(T)[sp].d([m5C])[sp].d(T)[sp].d([m5C])[sp].[moe](A)p.[moe](A)p.[moe](G)[sp].[moe](G)}$$$$ (last 3' nucleoside missing)	7
RNA1{[moe](A)[sp].[moe](G)p.[moe](T)p.[moe](T)p.[moe](T)[sp].d([m5C])[sp].d(A)[sp].d(T)[sp].d(T)[sp].d([m5C])[sp].d(G)[sp].d(G)[sp].d(T)[sp].d(T)[sp].d(A)[sp].[moe](T)p.[moe](A)p.[moe](A)[sp].[moe](G)}$$$$ (last 3' nucleoside missing)	7
RNA1{[moe](A)[sp].[moe](G)p.[moe]([m5C])p.[moe](A)p.[moe](A)[sp].d(T)[sp].d([m5C])[sp].d(A)[sp].d(T)[sp].d(T)[sp].d(G)[sp].d(G)[sp].d(T)[sp].d(A)[sp].d(G)[sp].[moe]([m5C])p.[moe](A)p.[moe](T)[sp].[moe](A)}$$$$ (last 3' nucleoside missing)	5
RNA1{[moe](A)[sp].[moe](T)p.[moe](A)[sp].[moe](A)[sp].[moe](G)[sp].d(T)[sp].d(T)[sp].d(T)[sp].d([m5C])[sp].d(A)[sp].d(T)[sp].d(T)[sp].d([m5C])[sp].d(G)[sp].d(G)[sp].[moe](T)[sp].[moe](T)p.[moe](A)[sp].[moe](T)}$$$$ (last 3' nucleoside missing)	4
RNA1{[moe](A)[sp].[moe](T)p.[moe](A)[sp].[moe](G)[sp].[moe]([m5C])[sp].d(T)[sp].d(T)[sp].d([m5C])[sp].d([m5C])[sp].d(A)[sp].d([m5C])[sp].d([m5C])[sp].d(A)[sp].d([m5C])[sp].d(A)[sp].[moe](A)[sp].[moe](T)p.[moe](A)[sp].[moe](T)}$$$$ (last 3' nucleoside missing)	2
RNA1{[moe](A)[sp].[moe](T)p.[moe](G)[sp].[moe](A)[sp].[moe](G)[sp].d(T)[sp].d(G)[sp].d([m5C])[sp].d(A)[sp].d(T)[sp].d(G)[sp].d(G)[sp].d([m5C])[sp].d(A)[sp].d(T)[sp].[moe]([m5C])[sp].[moe](A)p.[moe](A)[sp].[moe](A)}$$$$ (last 3' nucleoside missing)	6
RNA1{[moe](A)[sp].[moe](T)p.[moe](G)[sp].[moe]([m5C])[sp].[moe](T)[sp].d(T)[sp].d(T)[sp].d([m5C])[sp].d(A)[sp].d(T)[sp].d(A)[sp].d(G)[sp].d([m5C])[sp].d(T)[sp].d(T)[sp].[moe]([m5C])[sp].[moe]([m5C])p.[moe](A)[sp].[moe]([m5C])}$$$$ (last 3' nucleoside missing)	2
RNA1{[moe](A)[sp].[moe](T)p.[moe](G)p.[moe]([m5C])p.[moe](A)[sp].d(G)[sp].d(T)[sp].d(T)[sp].d(T)[sp].d([m5C])[sp].d(T)[sp].d([m5C])[sp].d(T)[sp].d(A)[sp].d([m5C])[sp].[moe](T)p.[moe]([m5C])p.[moe](T)[sp].[moe](A)}$$$$ (last 3' nucleoside missing)	0
RNA1{[moe](A)[sp].[moe](T)p.[moe](G)p.[moe]([m5C])p.[moe](T)[sp].d(T)[sp].d(T)[sp].d([m5C])[sp].d(A)[sp].d(T)[sp].d(A)[sp].d(G)[sp].d([m5C])[sp].d(T)[sp].d(T)[sp].[moe]([m5C])p.[moe]([m5C])p.[moe](A)[sp].[moe]([m5C])}$$$$ (last 3' nucleoside missing)	0
RNA1{[moe](A)[sp].[moe](T)p.[moe](T)[sp].[moe](G)[sp].[moe]([m5C])[sp].d([m5C])[sp].d(A)[sp].d([m5C])[sp].d(T)[sp].d([m5C])[sp].d(A)[sp].d(T)[sp].d(G)[sp].d(A)[sp].d(G)[sp].[moe](G)[sp].[moe](A)p.[moe]([m5C])[sp].[moe](T)}$$$$ (last 3' nucleoside missing)	4
RNA1{[moe](A)[sp].[moe](T)p.[moe](T)[sp].[moe]([m5C])[sp].[moe](G)[sp].d(G)[sp].d(T)[sp].d(T)[sp].d(A)[sp].d(T)[sp].d(A)[sp].d(A)[sp].d(G)[sp].d(G)[sp].d([m5C])[sp].[moe](A)[sp].[moe]([m5C])p.[moe](A)[sp].[moe](G)}$$$$ (last 3' nucleoside missing)	5
RNA1{[moe](A)[sp].[moe](T)p.[moe](T)p.[moe](G)p.[moe]([m5C])[sp].d(A)[sp].d(A)[sp].d(T)[sp].d(G)[sp].d(T)[sp].d(T)[sp].d(T)[sp].d([m5C])[sp].d(A)[sp].d(A)[sp].[moe](T)p.[moe](A)p.[moe](T)[sp].[moe](G)}$$$$ (last 3' nucleoside missing)	1
RNA1{[moe](A)[sp].[moe](T)p.[moe]([m5C])[sp].[moe](A)[sp].[moe](T)[sp].d(T)[sp].d(G)[sp].d([m5C])[sp].d(T)[sp].d(G)[sp].d([m5C])[sp].d(T)[sp].d([m5C])[sp].d(A)[sp].d(T)[sp].[moe](A)[sp].[moe](T)p.[moe]([m5C])[sp].[moe](T)}$$$$ (last 3' nucleoside missing)	6
RNA1{[moe](A)[sp].[moe](T)p.[moe]([m5C])p.[moe]([m5C])p.[moe](A)[sp].d([m5C])[sp].d(A)[sp].d(T)[sp].d(T)[sp].d(T)[sp].d([m5C])[sp].d(T)[sp].d(G)[sp].d(A)[sp].d(A)[sp].[moe](T)p.[moe]([m5C])p.[moe]([m5C])[sp].[moe]([m5C])}$$$$ (last 3' nucleoside missing)	4
